From PMC9086992 (Chemmedchem, 2022)

Tests used:
Assay type in all cases: cell-based
[1] = tested on: CCRF-CEM leukemia cell line; experiment: cells; conditions: Homo sapiens, 48 h, read-out: % inhibition CCRF-CEM
[2] = tested on: RPMI-8226 leukemia cell line; experiment: cells; conditions: Homo sapiens, RPMI-8226, 48 h, read-out: % inhibition RPMI-8226
K562 leukemia cell line = conditions: 10 μM compound, 48 h treatment, CellTiter-Blue
HL-60 leukemia cell line = experiment: cells; conditions: Homo sapiens, HL-60, 48 h, read-out: % inhibition HL-60
[3] = tested on: MOLT-4 leukemia cell line; experiment: cells; conditions: Homo sapiens, MOLT-4, 48 h, read-out: % inhibition MOLT-4

Row | Compound | inhibition at 10 µM [1] [%] | inhibition at 10 µM [2] [%] | % inhibition K562 (K562 leukemia cell line) [%] | inhibition at 10 µM (HL-60 leukemia cell line) [%] | inhibition at 10 µM [3] [%]
1 | COc1cccc2c1C(=O)c1c(O)c3c(c(O)c1C2=O)C[C@@](O)(C(=O)CO)C[C@@H]3O[C@H]1C[C@H](N)[C@H](O)[C@H](C)O1 [doxorubicin] | 92.3 ± 1.3 | 84.1 ± 3.2 | 78.2±4.1 | 91.5 ± 0.6 | 93.2 ± 2.6
2 | C[C@H]1[C@H](OC(=O)CCC(=O)O)O[C@@H]2O[C@@]3(C)CC[C@H]4[C@H](C)CC[C@@H]1[C@@]24OO3 [artesunic acid, Artesunic acid] | 9.4 ± 4 | 27.3 ± 6.1 |  | 44.3 ± 7.4 | 9.9 ± 4.8
